Results: patent US20170166870A1, “HUMAN HEPATIC 3D CO-CULTURE MODEL AND USES THEREOF” (Vrije Universiteit Brussel, priority 2014, published 2017)
Read-outs that look alike come from different tables or passages of the source.

Experiments:
3D HepaRG/HSC co-culture [1] = assay: Single and repeated exposure, cell viability (% ATP), serum-free medium; type: cell-based, human
Procedure: Culture medium. Day 0 cells were resuspended in HepaRG thawing medium and from day 1 to 21 cells were kept in the HepaRG culture medium 0% DMSO, until day 8. For the repeated versus single compound exposure assays, on day 8, the HepaRG culture medium 0% DMSO was replaced by the Serum-free HepaRG maintenance medium described in Klein et. al. 2013 (HepaRG Induction/Toxicity medium, DMSO 0.5% (v/v), 2 μg/ml of epidermal growth factor and 10 μg/ml of hepatocyte growth factor) and kept in this medium until the end of culture.
(§1) Single and repeated exposure. For the single and repeated compound exposure cell spheroids (3D HepaRG/HSC, 3D HepaRG and 3D HSC) were exposed respectively on day 20 for 24 h or every second day from day 8 to day 21 in serum-free medium with no additional solvent. Cells were exposed to a range of 8 concentrations between 0.5 and 80 mM for APAP single-dose, 0.125 and 40 mM for APAP repeated-dose, 0.3 and 500 μM Allyl Alcohol (AA, Sigma-Aldrich), 1.9 and 1000 μM Methotrexate (MTX, Pfizer, NY, USA). For the recovery assay, on day 21, cells were washed using serum-free medium and kept for 3 extra days.
Cell viability assay was performed by measuring ATP production upon individual spheroid exposure to the different concentrations of the test compound. Cell spheroids were lysed individually for viability analysis using the Cell titer Glo kit (Promega) following the instructions of the manufacturer. Luminescence values were converted into percentage of ATP by comparison with controls and converted into dose-response curves using Prism 5 software.

3D HepaRG/HSC co-culture [2] = assay: Single and repeated exposure, gene expression of HSC activation markers; type: cell-based, human; conditions: for HSC activation (up-regulation of activation markers, mRNA): serum-free medium
Procedure: as §1
For the cell culture samples, total RNA from 4-6 pooled spheroids was extracted from cells using the RNeasy Micro Kit (Qiagen, Venlo, Limburg, Netherlands). In the mouse assays, sorted HSC from different mice were lysed separately. Total RNA from tissue cultured cells was extracted using ReliaPrep RNA Cell Miniprep System (Promega).
Reverse-transcription using the Revert Aid Kit (ThermoFisher Scientific, Waltham, Massachusetts, USA) allowed conversion of RNA to cDNA. The RT reaction was performed at 25° C. for ten minutes followed by 30 minutes at 50° C. For quantitative real-time polymerase chain reaction (qPCR), GoTaq QPCR Master Mix with BRYTE green (Promega) was used, subjected to qPCR in a 7500 real time PCR system and analysed using System SDS software v2.0.5 (Applied Biosystems, Waltham, Mass., USA), using GAPDH for normalisation. Reliability of GAPDH as house-keeping gene was determined using Normfinder (Anderson et al., 2004). Fold change differences between samples were determined using the comparative Ct (δδCt) method. The expression level of different targets, relative to GAPDH (δCt) and relative to the calibrator, was given by 2^−δδCt.

3D HepaRG/HSC co-culture [3] = assay: Single and repeated exposure, procollagen in culture supernatant; type: cell-based, human; conditions: repeated exposure, day 14; not observed at day 21
From the text: (§2) FIG. 10: APAP and reference fibrotic compounds in single- and repeated-exposure of the 3D HepaRG/HSC co-culture. (A, C and E) cell viability, represented by % ATP and (B, D and F) gene expression. Error bars represent the standard deviation between independent assays (N=2) each point represents the pool of 5-6 spheroids. (D, F) Graph inserts represent the second repeat of the assay. Due to the variation between assays values could not be averaged together. Each point represents the pool of 5-6 spheroids. (G-H) Fibrosis read-outs at the protein level. (G) Procollagen measurements in culture supernatant upon single and repeated compound exposure (day 14 and 21) to 3D HepaRG/HSCs. (H) Procollagen measurements in culture supernatant upon 24 h incubation with the reference pro-fibrotic compounds of 3D HepaRG and 3D HSCmono-cultures.
(§3) Samples for pro-collagen measurement were five times concentrated using 10 kD Vivaspin 500 ultrafiltration columns (VWR, Radnor, Pa.), the resulting supernatant was analysed for the presence of Type I C-Peptide using the TAKARA (Chanteloup-en-Brie, France) kit.
(§4) Single and repeated exposure. For the single and repeated compound exposure cell spheroids (3D HepaRG/HSC, 3D HepaRG and 3D HSC) were exposed respectively on day 20 for 24 h or every second day from day 8 to day 21 in serum-free medium with no additional solvent. […]

[4] = test system: 3D HepaRG and 3D HSC mono-cultures; assay: Procollagen in culture supernatant of mono-cultures, reference pro-fibrotic compounds; type: cell-based, human; conditions: 3D mono-cultures, 24 h incubation
From the text: as §2, §3, §4

3D HepaRG/HSC co-culture [5] = assay: APAP toxicity assay, cell viability by ATP (Cell titer Glo); type: cell-based, human; conditions: 2.5 mM VPA with APAP
Procedure: APAP toxicity assay was performed in 3D HepaRG/co-culture as well as in 3D HepaRG monoculture. […] For some experiments the culture medium was supplemented with 2.5 mM valproic acid (VPA sodium salt, Sigma-Aldrich) or with cytokine mixture (Raicevic et al.,2012)-interleukin (IL)-1β 25 ng/mL (Peprotech, Rocky Hill, N.J., USA), interferon (IFN)-γ 10^3 U/mL, tumor necrosis factor (TNF)-a 50 ng/mL, and IFN-α 3·10^3 U/mL (all from Prospec, Inc., East Brunswick, N.J., USA). For the recovery assay, at the end of APAP incubation, cells were washed using HepaRG culture 0% DMSO medium and kept in the same medium for 3 more days.
(§5) At the end of the incubation period, 5 spheroids per condition were pooled and lysed for RNA analyses, while the remaining spheroids per condition were lysed individually for viability analysis using the Cell titer Glo kit (Promega) for ATP measurements following the instructions of the manufacturer.

3D HepaRG/HSC co-culture [6] = assay: mRNA expression of HSC activation markers (qPCR) after APAP incubation; type: cell-based, human; conditions: 2.5 mM VPA, highest APAP concentrations
Procedure: APAP toxicity assay was performed in 3D HepaRG/co-culture as well as in 3D HepaRG monoculture. For 24 h, starting at day 20, cells were exposed to a range of APAP concentrations between 0.5 and 80 mM, keeping cells with the solvent (0.1% DMSO) as a control. For some experiments the culture medium was supplemented with 2.5 mM valproic acid (VPA sodium salt, Sigma-Aldrich) or with cytokine mixture (Raicevic et al.,2012)-interleukin (IL)-1β 25 ng/mL (Peprotech, Rocky Hill, N.J., USA), interferon (IFN)-γ 10^3 U/mL, tumor necrosis factor (TNF)-a 50 ng/mL, and IFN-α 3·10^3 U/mL (all from Prospec, Inc., East Brunswick, N.J., USA). For the recovery assay, at the end of APAP incubation, cells were washed using HepaRG culture 0% DMSO medium and kept in the same medium for 3 more days.
as §5
(§6) Total RNA was extracted from cells using the ReliaPrep RNA Cell Miniprep System (Promega, Madison, Wis.). Reverse-transcription using the Revert Aid Kit (ThermoFisher Scientific, St. Leon-Rot, Germany) allowed conversion of RNA to cDNA. The RT reaction was performed at 25° C. for ten minutes followed by 30 minutes at 50° C. For quantitative real-time polymerase chain reaction (qPCR), GoTaq QPCR Master Mix with BRYTE green (Promega, Madison, Wis.) was used, subjected to qPCR in a 7500 real time PCR system and analysed using System SDS software v2.0.5 (Applied Biosystems), using GAPDH for normalisation.

3D HepaRG/HSC co-culture [7] = assay: Exposure to pro-fibrotic factors, gene expression; type: cell-based, human
Procedure: From day 14 to day 21, 3D HepaRG/HSC spheroids were exposed to a solution of 100 ng/ml Lipopolysaccharide (LPS, Sigma) in culture medium, refreshed every second day up to day 21. Incubation with the Transforming growth factor-β1 (TGF-β1, R&D systems inc., Minneapolis, Minn., USA) was performed on day 19 for 48 h at a concentration of 10 ng/ml in HepaRG Induction/Toxicity medium. On day 21, cells were lysed and gene expression was analyzed upon RNA extraction.
as §6

[8] = test system: 3D mouse hepatocyte/HSC co-culture (1Hep:2HSC); assay: LPS stimulation of 3D mouse hepatic co-cultures, aSMA and Col1a1 expression; type: cell-based; conditions: 6 days LPS treatment, day 9; 1Hep:2HSC ratio
From the text: FIG. 1: Screen of hepatocyte:hepatic stellate cell ratios in 3D mouse cultures. Figure represents the HSC activation markers (A, B) and Hepatocyte markers (C) measured in the different 3D mouse hepatic co-cultures. A—basal gene expression of fibrotic markers (aSMA and Col1a1) on day 9 of culture. B—Fold increase of aSMA and Col1a1 on day 9 upon 6 days treatment with the pro-fibrotic factor LPS. Horizontal line corresponds to non-treated 3D co-cultures for each case. C—over-time gene expression of albumin (a) and CYP3A11 (b) in the 3D co-cultures where better results were obtained previously (2hep:1HSC and 1Hep:2HSC). Comparisons between groups were analyzed for statistical significance by one-way ANOVA followed by Tukey. *** p<0.001; ** p<0.01; * p<0.05. […]
Total RNA was extracted from cells using the ReliaPrep RNA Cell Miniprep System (Promega, Madison, Wis.). […] For quantitative real-time polymerase chain reaction (qPCR), GoTaq QPCR Master Mix with BRYTE green (Promega, Madison, Wis.) was used, subjected to qPCR in a 7500 real time PCR system and analysed using System SDS software v2.0.5 (Applied Biosystems), using GAPDH for normalisation. Reliability of GAPDH as house-keeping gene was determined using Normfinder (Andersen, Jensen et al. 2004) to produce the ΔCT values. […]

## C=CCO [Allyl Alcohol]
3D HepaRG/HSC co-culture [1]; repeated exposure
  cell viability dose-response: disappeared upon repeated exposure
3D HepaRG/HSC co-culture [1]; single exposure
  cell viability: dose-response observed at the single exposure
3D HepaRG/HSC co-culture [2]; repeated exposure
  HSC activation (up-regulation of activation markers, mRNA): increase of the HSC activation markers at mRNA levels
3D HepaRG/HSC co-culture [2]; single exposure 24 h
  HSC activation (up-regulation of activation markers, mRNA): increase of the HSC activation markers at mRNA levels
3D HepaRG/HSC co-culture [3]
  collagen secretion: high collagen secretion at day 14
[4]
  collagen secretion: no collagen secretion is detected

## CN(Cc1cnc2nc(N)nc(N)c2n1)c1ccc(C(=O)N[C@@H](CCC(=O)O)C(=O)O)cc1 [MTX, Methotrexate]
3D HepaRG/HSC co-culture [1]
  cell viability: does not seem to affect cell viability at any of the tested concentrations
3D HepaRG/HSC co-culture [1]; repeated exposure, lowest concentration
  percentage of ATP production: less than 20%
3D HepaRG/HSC co-culture [2]; repeated exposure 63 μM
  recovery of HSC 3 days after compound washout: observed
3D HepaRG/HSC co-culture [2]; repeated exposure
  HSC activation (up-regulation of activation markers, mRNA): dramatically compensated
3D HepaRG/HSC co-culture [2]; single exposure 24 h
  HSC activation (up-regulation of activation markers, mRNA): no longer observed
3D HepaRG/HSC co-culture [3]
  collagen secretion: high collagen secretion at day 14
[4]
  collagen secretion: no collagen secretion is detected

## CCCC(CCC)C(=O)O [VPA, valproic acid]
3D HepaRG/HSC co-culture [5]
  effect on APAP toxicity (cell viability): did not affect APAP toxicity
3D HepaRG/HSC co-culture [6]
  effect on APAP-induced HSC markers: lower up-regulation of the HSC markers

## Lipopolysaccharide [LPS]
3D HepaRG/HSC co-culture [7]; 100 ng/ml LPS, 6 days
  survivor markers (IL6, MMP1, CCL2, TNFα, IL1β) expression: induced an up-regulation of the survivor markers
[8]
  activation response (aSMA, Col1a1): increased aSMA and Col1a1

## TGFβ: Transforming growth factor-β1, known pro-fibrogenic factor
3D HepaRG/HSC co-culture [7]; 10 ng/ml TGFβ, 48 h, day 21
  activation markers (Acta2, Col1a1, Col3a1, Loxl2) expression: acted on the activation markers
